According to patent US20080009416A1, “THIAZOLIUM COMPOUNDS AND USES THEREOF” (Mycosol, Inc., priority 2004, published 2008):

Key:
male Lewis rats = settings: intrapleural with carrageenan, 4 hours
Protocol: Acute Anti-Inflammatory Activity in the 4HR Carrageenan Pleurisy Assay in Rats
The Acute Local Carrageenan Pleuritis Assay in Rats is an in vivo model to determine local acute anti-inflammatory activity of compounds based on inhibition of edema formation and neutrophil mobilization into the pleural cavity. In this assay, male Lewis rats of approximately 200 gms were utilized. A carrageenan solution (400 μg/ml) was prepared in water. The experimental compounds were mixed into the carrageenan solution. The carrageenan +/− compounds was injected intrapleurally 0.25 cc/rat. The rats were sacrificed four hours later. The pleural cavity was opened and measured and the exudate extracted. The pleural cavity was washed with 5 cc EDTA solution to capture pleural cells. The total WBCs in the wash were counted and recording. Next the compound inhibition of exudate volume and inflammatory cell influx wash determined. Every experiment included a positive (prednisolone) and negative control group.

Alternaria solani = test: Anti-Fungal Activity in Plant Relevant Molds In Vitro Microtitre Test; type: cell-based; settings: Alternaria solani (Potato); 18° C., 7 days; growth reduced by at least 90% vs control, OD 405 nm
Protocol: (§1) Compounds III, IV and V were prepared and were subjected to Anti-Fungal Activity in Plant Relevant Molds In Vitro Microtitre Tests.
(§2) A stock solution of each compound was prepared in DMSO at a concentration of 10,000 ppm a.i. Further dilutions were prepared with water. The test was conducted at the following concentrations: 125, 31, 8, […], 0.5 and 0.125 ppm a.i. Spore suspensions of the fungi were prepared. The test was conducted in microtiter plates and for each fungus and each concentration, 3 wells were prepared. Incubation of the inoculated plates was carried out at 18° C. for 7 days. After this time, the optical density of the mycelium developed in each well was measured at 405 nm.
(§3) The data produced allowed an assessment of the IC 90 value (the concentration at which the fungal growth was reduced by at least 90% compared to the control).

Botrytis cinerea = test: as above; type: cell-based; settings: Botrytis cinerea (Vegetable); 18° C., 7 days; growth reduced by at least 90% vs control, OD 405 nm
Protocol: as §1, §2, §3

Cochliobolus mijabeanus = test: as above; type: cell-based; settings: Cochliobolus mijabeanus (Corn); 18° C., 7 days; growth reduced by at least 90% vs control, OD 405 nm
Protocol: as §1, §2, §3

[1] = tested on: Colletotrichum lagenarium; test: as above; type: cell-based; settings: Colletotrichum lagenarium (Mellons); 18° C., 7 days; growth reduced by at least 90% vs control, OD 405 nm
Protocol: as §1, §2, §3

Fusarium culmorum = test: as above; type: cell-based; settings: Fusarium culmorum (Wheat Head); 18° C., 7 days; growth reduced by at least 90% vs control, OD 405 nm
Protocol: as §1, §2, §3

Pyrenophora teres = test: as above; type: cell-based; settings: Pyrenophora teres (Barley); 18° C., 7 days; growth reduced by at least 90% vs control, OD 405 nm
Protocol: as §1, §2, §3

Rhizoctonia solani = test: as above; type: cell-based; settings: Rhizoctonia solani (Rice Sheath); 18° C., 7 days; growth reduced by at least 90% vs control, OD 405 nm
Protocol: as §1, §2, §3

Septonia tritici = test: as above; type: cell-based; settings: Septonia tritici (Wheat Leaf); 18° C., 7 days; growth reduced by at least 90% vs control, OD 405 nm
Protocol: as §1, §2, §3

Phytophthora infestans = type: cell-based; settings: Phytophthora infestans (Tomato); 18° C., 7 days; growth reduced by at least 90% vs control, OD 405 nm
Pyricularia oryzae = type: cell-based; settings: Pyricularia oryzae (Rice); 18° C., 7 days; growth reduced by at least 90% vs control, OD 405 nm

| Structure (SMILES) | Acute Anti-inflammatory Activity in Rats ED50 (male Lewis rats) [mg/rat] | IC90 (Alternaria solani) [ppm] | IC90 (Botrytis cinerea) [ppm] | IC90 (Cochliobolus mijabeanus) [ppm] | IC90 [1] [ppm] | IC90 (Fusarium culmorum) [ppm] | IC90 (Pyrenophora teres) [ppm] | IC90 (Rhizoctonia solani) [ppm] | IC90 (Septonia tritici) [ppm] | IC90 (Phytophthora infestans) [ppm] | IC90 (Pyricularia oryzae) [ppm] |
| --- | --- | --- | --- | --- | --- | --- | --- | --- | --- | --- | --- |
| CCOc1ccc(-c2csc(C=Cc3ccc(N(CC)CC)cc3)[n+]2C)cc1.[I-] [2-(4′-diethylaminostyryl)-4-(4″-ethoxyphenyl)-3-methyl-thiazolium iodide] | 0.001 |  |  |  |  |  |  |  |  |  |  |
| CCN(CC)c1ccc(/C=C/c2scc(-c3ccc(OC)cc3)[n+]2C)cc1.[I-] [Formula III] |  | 31 | 2 | 2 | 8 | 31 | 8 | 8 | 2 | 2 | 8 |
| Cc1scc(-c2ccc(C3CCCCC3)cc2)[n+]1C.[I-] [2,3-dimethyl-4(p-cyclohexylphenyl) thiazolium iodide] | 0.02 |  |  |  |  |  |  |  |  |  |  |
| CC[n+]1c(-c2ccc(-c3ccccc3)cc2)csc1C=Cc1ccc(N2CCCC2)cc1.[I-] [4-(4-biphenyl)-3-ethyl-2-[(4-pyrrolidino)styryl]thiazolium iodide] | 0.001 |  |  |  |  |  |  |  |  |  |  |
| CC(C)c1ccc(C(C)C)c(-c2csc(/C=C/c3ccc(N(C)C)cc3)[n+]2C)c1.[I-] [Formula IV, E-2-(N,N′-dimethylaminostyryl)-3-methyl-4-(2,5-diisopropylphenyl)thiazolium iodide] | 0.0002 | 8 | 2 | 8 | 8 | 125 | 8 | 8 | 2 | 8 | 8 |
| Cc1cc(-c2csc(/C=C/c3ccc(N(C)C)cc3)[n+]2C)c(C)c(C)c1C.[I-] [Formula V, E-2-(N,N′-dimethylaminostyryl)-3-methyl-4-(2,3,4,5-tetramethylphenyl)thiazolium iodide] |  | 8 | 2 | 8 | 8 | 31 | 8 | 8 | 2 | 2 | 8 |
| CC(C)Cc1ccc(-c2csc(C=Cc3ccc(N4CCCC4)cc3)[n+]2C)cc1.[I-] [4-(4-isobutylphenyl)-3-methyl-2-[2-(4-pyrrolidin-1-yl-phenyl)vinyl]-thiazolium iodide] | 0.0004 |  |  |  |  |  |  |  |  |  |  |
| CCN(CC)c1ccc(C=Cc2scc(-c3ccc(CC(C)C)cc3)[n+]2C)cc1.[I-] [2-[2-(4-diethylamino-phenyl)vinyl]-4-(4-isobutyl-phenyl)-3-methyl-thiazolium iodide] | 0.0003 |  |  |  |  |  |  |  |  |  |  |
